{
  "source": "paper PMC5751233",
  "about": "“Characterization of the Asiatic Acid Glucosyltransferase, UGT73AH1, Involved in Asiaticoside Biosynthesis in Centella asiatica (L.) Urban” (International Journal of Molecular Sciences, 2017)",
  "target": "T1, UGT73AH1 (Centella asiatica, UniProt A0A2I7M6C4)",
  "T1 construct": "full-length ORF with stop codon, untagged, 501 residues; expressed in E. coli BL21 (DE3), soluble total protein extract",
  "T1 sequence (A0A2I7M6C4 1-501)": "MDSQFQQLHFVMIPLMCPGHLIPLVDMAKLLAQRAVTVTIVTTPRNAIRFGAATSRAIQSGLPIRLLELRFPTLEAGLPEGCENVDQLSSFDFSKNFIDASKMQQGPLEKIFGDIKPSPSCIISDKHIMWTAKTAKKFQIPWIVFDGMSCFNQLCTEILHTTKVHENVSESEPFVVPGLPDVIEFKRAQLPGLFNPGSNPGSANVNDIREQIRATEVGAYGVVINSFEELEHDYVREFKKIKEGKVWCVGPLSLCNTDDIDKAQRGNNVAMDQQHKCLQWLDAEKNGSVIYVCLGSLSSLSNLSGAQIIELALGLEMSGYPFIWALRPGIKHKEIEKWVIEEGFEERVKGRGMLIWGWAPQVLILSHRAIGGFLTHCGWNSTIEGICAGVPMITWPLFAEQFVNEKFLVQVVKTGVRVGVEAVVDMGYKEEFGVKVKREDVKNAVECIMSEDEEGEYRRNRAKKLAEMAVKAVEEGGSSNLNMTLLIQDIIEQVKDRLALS",
  "test": "UPLC-QTOF/MS detection of monoglucoside product",
  "assay_type": "biochemical",
  "settings": "5 mM UDP-glucose, 0.5 mM asiatic acid, 50 mM Tris-HCl pH 8.5, 35 °C, 4 h; E. coli total protein extract; boiled-protein control",
  "data": [
    {"smiles": "C[C@H]1[C@H](C)CC[C@]2(C(=O)O)CC[C@]3(C)C(=CC[C@@H]4[C@@]5(C)C[C@@H](O)[C@H](O)[C@@](C)(CO)[C@@H]5CC[C@]43C)[C@H]12", "note": "[asiatic acid]", "values": [
      {"measurement": "UPLC-QTOF/MS detection of monoglucoside product", "value": "our results show that UGT73AH1 catalyzes the glycosylation of asiatic acid"}
    ]}
  ]
}
